Assay results as given in patent US9309213B2, “C-3 substituted bicyclooctane based HIV protease inhibitors” (Purdue Research Foundation, priority 2011, dated 2016).
Read-outs that look alike come from different tables or passages of the source.

Key:
Assay type in all cases: cell-based
[1] = tested on: multidrug-resistant HIV-1 variants; assay: Antiviral activity against the panel of multidrug-resistant HIV-1 variants
Method: Inhibitors 22 with a 3(S)-hydroxyl group and 25 with a 3(R)-hydroxyl group on the Cp-THF ligand were tested against a panel of multidrug-resistant HIV-1 variants. […] The contrast in antiviral activity of 22 compared to 25 underlines the importance of the stereochemistry at the 3-position of the Cp-THF ligand.
Such a stark contrast in antiviral activities underlines the importance of the stereochemistry at the 3-position of the P2 ligand.

HIV-1MDR/B = assay: microbe, parasite or virus in culture; settings: for EC50 / fold-change in EC50: Table 4; for EC50: HIV-1MDR/B (X4), PHA-PBMs, p24 Gag; for fold-change in EC50: HIV-1MDR/B compared to wild-type HIV-1ERS104pre
HIV-1MDR/TM = assay: microbe, parasite or virus in culture; settings: for EC50 / fold-change in EC50: Table 4; for EC50: HIV-1MDR/TM (X4), PHA-PBMs, p24 Gag; for fold-change in EC50: HIV-1MDR/TM compared to wild-type HIV-1ERS104pre
HIV-1MDR/C = assay: microbe, parasite or virus in culture; settings: for EC50 / fold-change in EC50: Table 4; for EC50: HIV-1MDR/C (X4), PHA-PBMs, p24 Gag; for fold-change in EC50: HIV-1MDR/C compared to wild-type HIV-1ERS104pre
HIV-1MDR/G = assay: microbe, parasite or virus in culture; settings: for EC50 / fold-change in EC50: Table 4; for EC50: HIV-1MDR/G (X4), PHA-PBMs, p24 Gag; for fold-change in EC50: HIV-1MDR/G compared to wild-type HIV-1ERS104pre
[2] = tested on: HIV-1ERS104pre (wild type); assay: Antiviral assay in PHA-PBMs, inhibition of p24 Gag protein production, wild-type isolate
HIV-1LAI = assay: In vitro antiviral assay, MT-2 cells exposed to HIV-1LAI, MTT assay
[3] = Human immunodeficiency virus 1, read-out: IC50 ± SDs

Structure (SMILES)	EC50 (HIV-1MDR/B)	fold-change in EC50 (HIV-1MDR/B)	EC50 (HIV-1MDR/TM)	fold-change in EC50 (HIV-1MDR/TM)	EC50 (HIV-1MDR/C)	fold-change in EC50 (HIV-1MDR/C)	EC50 (HIV-1MDR/G)	fold-change in EC50 (HIV-1MDR/G)	further results
COC(=O)N[C@@H]1CO[C@@H]2C[C@H](OC(=O)N[C@@H](Cc3ccccc3)[C@H](O)CN(CC(C)C)S(=O)(=O)c3ccc(OC)cc3)C[C@H]12 [Inhibitor 19l]	75 ± 11 nM	3	74 ± 6 nM	3	30 ± 6 nM	1	39 ± 1 nM	1	fold changes in EC50 ([1]; all MDR HIV-1 viruses versus wild type): < 3; EC50 ([2]; Table 4, HIV-1ERS104pre (wt), PHA-PBMs, p24 Gag, read-out: EC50 ± SDs): 29 ± 2 nM
COC(=O)N[C@H]1CO[C@@H]2C[C@H](OC(=O)N[C@@H](Cc3ccccc3)[C@H](O)CN(CC(C)C)S(=O)(=O)c3ccc(OC)cc3)C[C@H]12 [Inhibitor 19m]	18 ± 3 nM	6	24 ± 4 nM	8	15 ± 5 nM	5	20 ± 5 nM	7	EC50 ([1]; range over the strains): 15 to 24 nM; EC50 ([2]; wild-type HIV-1ERS104pre, read-out: EC50): 3 nM
COc1ccc(S(=O)(=O)N(CC(C)C)C[C@@H](O)[C@H](Cc2ccccc2)NC(=O)O[C@@H]2C[C@@H]3[C@@H](O)CO[C@@H]3C2)cc1 [Inhibitor 25]	–	–	–	–	–	–	–	–	IC50 (HIV-1LAI; Human immunodeficiency virus 1, MT2, Table 1, MT-2 cells, 100 TCID50s of HIV-1LAI, MTT assay, means of at least two experiments): 2.9 nM; IC50 (HIV-1LAI; Human immunodeficiency virus 1, MT2, read-out: antiviral IC50): 2.9 nM; IC50 ([1]; Human immunodeficiency virus 1, read-out: IC50 values against various multidrug-resistant HIV-1 strains): 2.9 to 29 nM; IC50 (HIV-1MDR/B; [3]): 29 ± 7 nM; IC50 (HIV-1MDR/TM; [3]): 3.1 ± 2 nM; IC50 (HIV-1MDR/C; [3]): 22 ± 3 nM; IC50 (HIV-1MDR/G; [3]): 4.5 ± 0.7 nM; IC50 ([2]; Human immunodeficiency virus 1): 2.9 nM; IC50 [2, 3]: 2.9 ± 0.8 nM
